Experimental data reported in US10131652B2, “Pyrimidinyloxy benzene derivatives as herbicides” (E. I. DU PONT DE NEMOURS AND COMPANY, priority 2014, dated 2018).
Read-outs that look alike come from different tables or passages of the source.

What was measured:
Assay in all cases: Test D pre-/postemergence plant response
Format in all cases: in vivo
[1] = tested on: yellow nutsedge (Cyperus esculentus); details: Cyperus; for pest or weed control at 31 g/ha: 31 g ai/ha; for pest or weed control at 62 g/ha: 62 g ai/ha; for pest or weed control at 125 g/ha: 125 g ai/ha
How it was run: (§1)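 Seeds were planted in a loam and sand blend and sprayed preemergence. In parallel, seedlings grown in peat moss/vermiculite medium were sprayed postemergence at 2 to 18 cm height. Both used a surfactant-containing non-phytotoxic solvent. Greenhouse ratings at 13 to 15 days used a 0–100 control scale.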

[2] = tested on: morningglory (Ipomoea coccinea); details: Ipomoea; for pest or weed control at 31 g/ha: 31 g ai/ha; for pest or weed control at 62 g/ha: 62 g ai/ha; for pest or weed control at 125 g/ha: 125 g ai/ha
How it was run: as §1

[3] = tested on: ragweed (common ragweed, Ambrosia elatior); details: Ambrosia artemisiifolia; for pest or weed control at 31 g/ha: 31 g ai/ha; for pest or weed control at 62 g/ha: 62 g ai/ha; for pest or weed control at 125 g/ha: 125 g ai/ha
How it was run: as §1

[4] = tested on: waterhemp (common waterhemp, Amaranthus rudis); details: Amaranthus tuberculatus; for pest or weed control at 31 g/ha: 31 g ai/ha; for pest or weed control at 62 g/ha: 62 g ai/ha; for pest or weed control at 125 g/ha: 125 g ai/ha
How it was run: as §1

[5] = tested on: lambsquarters (Chenopodium album); details: Chenopodium album; for pest or weed control at 31 g/ha: 31 g ai/ha; for pest or weed control at 62 g/ha: 62 g ai/ha; for pest or weed control at 125 g/ha: 125 g ai/ha
How it was run: as §1

[6] = tested on: barnyardgrass (Echinochloa crus-galli); details: Echinochloa crus-galli; for pest or weed control at 16 g/ha: 16 g ai/ha; for pest or weed control at 31 g/ha: 31 g ai/ha; for pest or weed control at 62 g/ha: 62 g ai/ha; for pest or weed control at 125 g/ha: 125 g ai/ha
How it was run: as §1

[7] = tested on: oilseed rape (Brassica napus); details: Brassica napus; for plant injury at 31 g/ha: 31 g ai/ha
How it was run: as §1

[8] = tested on: velvetleaf (Abutilon theophrasti); details: Abutilon theophrasti; for pest or weed control at 31 g/ha: 31 g ai/ha; for pest or weed control at 62 g/ha: 62 g ai/ha; for pest or weed control at 125 g/ha: 125 g ai/ha
How it was run: as §1

corn (Zea mays) = details: Zea mays; for Corn plant response rating (crop injury, 0 = no effect, 100 = complete kill) at 62 g/ha: 62 g ai/ha
How it was run: as §1

[9] = tested on: Italian ryegrass (Lolium multiflorum); details: Lolium multiflorum, post-emergence; Postemergence, 31 g ai/ha; scale 0 to 100 (0 no effect, 100 complete control); read-out: Ryegrass, Italian plant response rating
How it was run: as §1

[10] = post-emergence, Postemergence, scale 0 to 100, 0 no effect, 100 complete control, read-out: Plant response rating, Nutsedge, Yellow
[11] = pre-emergence, Preemergence, scale 0 to 100 (0 no effect, 100 complete control), read-out: Plant response rating, Nutsedge, Yellow
[12] = post-emergence, Postemergence, scale 0 to 100, 0 no effect, 100 complete control, read-out: Plant response rating, Morningglory
[13] = pre-emergence, Preemergence, scale 0 to 100 (0 no effect, 100 complete control), read-out: Plant response rating, Morningglory
[14] = post-emergence, Postemergence, scale 0 to 100, 0 no effect, 100 complete control, read-out: Plant response rating, Ragweed
[15] = pre-emergence, Preemergence, scale 0 to 100 (0 no effect, 100 complete control), read-out: Plant response rating, Ragweed
[16] = post-emergence, Postemergence, scale 0 to 100, 0 no effect, 100 complete control, read-out: Plant response rating, Waterhemp
[17] = pre-emergence, Preemergence, scale 0 to 100 (0 no effect, 100 complete control), read-out: Plant response rating, Waterhemp
[18] = post-emergence, Postemergence, scale 0 to 100, 0 no effect, 100 complete control, read-out: Plant response rating, Lambsquarters
[19] = pre-emergence, Preemergence, scale 0 to 100 (0 no effect, 100 complete control), read-out: Plant response rating, Lambsquarters
[20] = post-emergence, Postemergence, scale 0 to 100 (0 no effect, 100 complete control), read-out: Barnyardgrass plant response rating
[21] = post-emergence, Postemergence, scale 0 to 100, 0 no effect, 100 complete control, read-out: Plant response rating, Barnyardgrass
[22] = pre-emergence, Preemergence, scale 0 to 100 (0 no effect, 100 complete control), read-out: Plant response rating, Barnyardgrass
[23] = post-emergence, Postemergence, scale 0 to 100, 0 no effect, 100 complete control, read-out: Plant response rating, Velvetleaf
[24] = pre-emergence, Preemergence, scale 0 to 100 (0 no effect, 100 complete control), read-out: Plant response rating, Velvetleaf

## Fc1cccc(Oc2ncc(Br)cn2)c1-c1cc(C(F)F)no1 [Compound 145, 5-bromo-2-[2-[3-(difluoromethyl)-5-isoxazolyl]-3-fluorophenoxy]pyrimidine]
[1]; post-emergence, Postemergence, scale 0 to 100 (0 no effect, 100 complete control), read-out: Nutsedge, Yellow plant response rating
  pest or weed control at 31 g/ha: 5%
[1]; [10]
  pest or weed control at 62 g/ha: 5%
  pest or weed control at 125 g/ha: 10%
[1]; pre-emergence, Preemergence, read-out: Plant response rating (scale 0 to 100), Nutsedge, Yellow
  pest or weed control at 125 g/ha: 45%
[1]; pre-emergence, Preemergence, 16 g ai/ha, scale 0 to 100 (0 no effect, 100 complete control), read-out: Plant response rating, Nutsedge, Yellow
  pest or weed control at 16 g/ha: 0%
[1]; [11]
  pest or weed control at 31 g/ha: 0%
  pest or weed control at 62 g/ha: 30%
[2]; post-emergence, Postemergence, scale 0 to 100 (0 no effect, 100 complete control), read-out: Morningglory plant response rating
  pest or weed control at 31 g/ha: 85%
[2]; [12]
  pest or weed control at 62 g/ha: 85%
  pest or weed control at 125 g/ha: 80%
[2]; pre-emergence, Preemergence, read-out: Plant response rating (scale 0 to 100), Morningglory
  pest or weed control at 125 g/ha: 100%
[2]; pre-emergence, Preemergence, 16 g ai/ha, scale 0 to 100 (0 no effect, 100 complete control), read-out: Plant response rating, Morningglory
  pest or weed control at 16 g/ha: 15%
[2]; [13]
  pest or weed control at 31 g/ha: 55%
  pest or weed control at 62 g/ha: 90%
[3]; post-emergence, Postemergence, scale 0 to 100 (0 no effect, 100 complete control), read-out: Ragweed plant response rating
  pest or weed control at 31 g/ha: 50%
[3]; [14]
  pest or weed control at 62 g/ha: 50%
  pest or weed control at 125 g/ha: 65%
[3]; pre-emergence, Preemergence, read-out: Plant response rating (scale 0 to 100), Ragweed
  pest or weed control at 125 g/ha: 100%
[3]; pre-emergence, Preemergence, 16 g ai/ha, scale 0 to 100 (0 no effect, 100 complete control), read-out: Plant response rating, Ragweed
  pest or weed control at 16 g/ha: 25%
[3]; [15]
  pest or weed control at 31 g/ha: 60%
  pest or weed control at 62 g/ha: 75%
[4]; post-emergence, Postemergence, scale 0 to 100 (0 no effect, 100 complete control), read-out: Waterhemp plant response rating
  pest or weed control at 31 g/ha: 90%
[4]; [16]
  pest or weed control at 62 g/ha: 100%
  pest or weed control at 125 g/ha: 100%
[4]; pre-emergence, Preemergence, read-out: Plant response rating (scale 0 to 100), Waterhemp
  pest or weed control at 125 g/ha: 100%
[4]; pre-emergence, Preemergence, 16 g ai/ha, scale 0 to 100 (0 no effect, 100 complete control), read-out: Plant response rating, Waterhemp
  pest or weed control at 16 g/ha: 100%
[4]; [17]
  pest or weed control at 31 g/ha: 100%
  pest or weed control at 62 g/ha: 100%
[5]; post-emergence, Postemergence, scale 0 to 100 (0 no effect, 100 complete control), read-out: Lambsquarters plant response rating
  pest or weed control at 31 g/ha: 85%
[5]; [18]
  pest or weed control at 62 g/ha: 85%
  pest or weed control at 125 g/ha: 95%
[5]; pre-emergence, Preemergence, read-out: Plant response rating (scale 0 to 100), Lambsquarters
  pest or weed control at 125 g/ha: 100%
[5]; pre-emergence, Preemergence, 16 g ai/ha, scale 0 to 100 (0 no effect, 100 complete control), read-out: Plant response rating, Lambsquarters
  pest or weed control at 16 g/ha: 100%
[5]; [19]
  pest or weed control at 31 g/ha: 100%
  pest or weed control at 62 g/ha: 100%
[6]; [20]
  pest or weed control at 16 g/ha: 5%
  pest or weed control at 31 g/ha: 5%
[6]; [21]
  pest or weed control at 62 g/ha: 10%
  pest or weed control at 125 g/ha: 30%
[6]; pre-emergence, Preemergence, read-out: Plant response rating (scale 0 to 100), Barnyardgrass
  pest or weed control at 125 g/ha: 100%
[6]; [22]
  pest or weed control at 16 g/ha: 65%
  pest or weed control at 31 g/ha: 85%
  pest or weed control at 62 g/ha: 85%
[7]; post-emergence, Postemergence, scale 0 to 100 (0 no effect, 100 complete control), read-out: Oilseed Rape plant response rating
  plant injury at 31 g/ha: 70%
[7]; pre-emergence, Preemergence, 125 g ai/ha, read-out: Plant response rating (scale 0 to 100), Oilseed Rape
  plant injury at 125 g/ha: 100%
[7]; pre-emergence, Preemergence, 16 g ai/ha, scale 0 to 100 (0 no effect, 100 complete control), read-out: Plant response rating, Oilseed Rape
  plant injury at 16 g/ha: 40%
[7]; pre-emergence, Preemergence, scale 0 to 100 (0 no effect, 100 complete control), read-out: Plant response rating, Oilseed Rape
  plant injury at 31 g/ha: 100%
[7]; pre-emergence, Preemergence, 62 g ai/ha, scale 0 to 100 (0 no effect, 100 complete control), read-out: Plant response rating, Oilseed Rape
  plant injury at 62 g/ha: 100%
[8]; post-emergence, Postemergence, scale 0 to 100 (0 no effect, 100 complete control), read-out: Velvetleaf plant response rating
  pest or weed control at 31 g/ha: 70%
[8]; [23]
  pest or weed control at 62 g/ha: 75%
  pest or weed control at 125 g/ha: 80%
[8]; pre-emergence, Preemergence, read-out: Plant response rating (scale 0 to 100), Velvetleaf
  pest or weed control at 125 g/ha: 100%
[8]; pre-emergence, Preemergence, 16 g ai/ha, scale 0 to 100 (0 no effect, 100 complete control), read-out: Plant response rating, Velvetleaf
  pest or weed control at 16 g/ha: 90%
[8]; [24]
  pest or weed control at 31 g/ha: 100%
  pest or weed control at 62 g/ha: 100%
Corn (Zea mays); post-emergence, Postemergence, 16 g ai/ha, scale 0 to 100 (0 no effect, 100 complete control), read-out: Corn plant response rating
  plant injury at 16 g/ha: 5%
Corn (Zea mays); post-emergence, Postemergence, 31 g ai/ha, scale 0 to 100 (0 no effect, 100 complete control), read-out: Corn plant response rating
  plant injury at 31 g/ha: 5%
Corn (Zea mays); post-emergence, Postemergence, scale 0 to 100, 0 no effect, 100 complete control
  Corn plant response rating (crop injury, 0 = no effect, 100 = complete kill) at 62 g/ha: 5%
Corn (Zea mays); post-emergence, Postemergence, 125 g ai/ha, scale 0 to 100, 0 no effect, 100 complete control
  Corn plant response rating (crop injury, 0 = no effect, 100 = complete kill) at 125 g/ha: 10%
Corn (Zea mays); pre-emergence, Preemergence, 125 g ai/ha, read-out: Plant response rating (scale 0 to 100), Corn
  plant injury at 125 g/ha: 45%
Corn (Zea mays); pre-emergence, Preemergence, 16 g ai/ha, scale 0 to 100 (0 no effect, 100 complete control)
  Corn plant response rating (crop injury, 0 = no effect, 100 = complete kill) at 16 g/ha: 0%
Corn (Zea mays); pre-emergence, Preemergence, 31 g ai/ha, scale 0 to 100 (0 no effect, 100 complete control)
  Corn plant response rating (crop injury, 0 = no effect, 100 = complete kill) at 31 g/ha: 5%
Corn (Zea mays); pre-emergence, Preemergence, scale 0 to 100 (0 no effect, 100 complete control)
  Corn plant response rating (crop injury, 0 = no effect, 100 = complete kill) at 62 g/ha: 10%
[9]
  pest or weed control at 31 g/ha: 0%
